Series [1] relates to MDA MB 231 cells. The series can be described thus: Cell viability / cytotoxicity assay (cell counting). Type of series: cell-based. Conditions: Homo sapiens. As to the method: (§1) Cells were seeded at 3–5 × 10^4 cells/well density (depending on cell lines) in 12-well plates, in triplicate, and maintained at 37 °C in 5% CO2. After 24 h, cells were treated with different concentrations of indicated drugs in a range from 0 to 100 μM (0, 0.1, 1, 10, 50, 100 μM). […] Cell number of each sample was determined with Z2 Coulter Counter (Beckman Coulter, Brea, CA, USA), in triplicate. Data about cell viability were plotted in GraphPad Prism 8.0 software (GraphPad Software, San Diego, CA, USA) to draw dose-response curve and to calculate IC50.

Series [2] concerns MDA MB 468 cells. The series is described as above. Format: cell-based. As to conditions: Homo sapiens. As to the method:
as §1

Series [3] concerns β-catenin. The series can be described thus: Western blot of β-catenin protein levels in MDA MB 231 cells. Format: cell-based, human. As to conditions: MDA MB 231, 6 μM, 48 to 72 h. As for the experimental part:
Cells (1 × 10^5) were seeded in 6-well plates. After 24 h, cells were treated for indicated times with DMSO (vehicle) or FHP01 or XAV939 (Merck). After treatments, cells were washed with cold PBS and total protein extracts obtained by adding 80 µL of “RIPA Lysis buffer” (50 mM Tris-HCl pH 8.0, 150 mM NaCl, 0.5% Sodium deoxycholate, 0.1% SDS, 1% NP-40, 2 mM Orthovanadate, 2mM Sodium fluoride, 1mM Dithiothreitol and 1× protease inhibitors). After mechanicals detachment with cell scrapers, total lysates were collected in tubes, vortexed, and incubated for 15 min on ice. Tumors from mice were collected and disrupted by bead homogenization in Lysing Matrix D tubes using a FastPrep-24 5G homogenizer (MP Biomedicals, Solon, OH, USA) filled with “RIPA Lysis buffer” w:v. Next, samples were centrifuged for 10 min at 16,000× g, and supernatants were collected, representing total cell lysates.
Densitometric analysis of western blots was performed with NIH Image J (National Institutes of Health).
For orientation: A western blot detects proteins with antibodies after separation by electrophoresis.

The test system of series [4] is WNT signaling (TCF/LEF transcriptional activity). The series can be described thus: TCF/LEF luciferase reporter assay (WNT1/WNT3A) in MDA MB 231 cells. As to conditions: MDA MB 231, 6 μM, 48 h. Type of series: cell-based, human. As to the method:
MDA MB 231 cells were seeded at 3 × 10^4 cells/well density in 12-well plates, in triplicate, and transfected with 250 ng of the M50 Super 8× TOPFlash reporter vector (Addgene Plasmid #12456) and 1 μg of expression vectors inducing the WNT pathway (Wnt1-V5, Addgene plasmid #43807, and Wnt3A-V5, Addgene plasmid #43810). Eight hours after transfection, cells were treated with FHP01, XAV939 (Merck, Kenilworth, NJ, USA) or DMSO for indicated times prior to lysis in Passive Lysis Buffer (Promega, Madison, WI, USA). Luciferase activity in cellular lysates was assessed on a Glomax 20/20 luminometer (Promega) using the Luciferase Assay System (Promega). Results were normalized for GFP expression, upon transfection with GFP coding vector (1 μg). Representative results from 3 independent experiments are shown (n = 3). Error bars represent the Standard Error of the Mean. All samples were read at least in triplicate.
(A reporter such as luciferase makes a cellular process visible.)

A short description of series [5]: Drug distribution to brain and liver in mice. Conditions: for Kp at 4 h / Kp at 8 h: male, Swiss Albino, mouse, ip, 10 mg/kg, ng/g normalized against ng/mL. Type of series: in vivo, Swiss Albino mice. As for the experimental part: These studies were performed at the GVKBioscience Pvt. LTD Contract Research and Development Organization (CRDO). Animals were housed in cages with clean bedding. Adult Swiss Albino male mice (weight = 20–35 g) were maintained and monitored for good health in accordance with GVKBioscience Pvt. LTD Test Facility SOPs and at the discretion of the laboratory animal veterinarian. Certified rodent diet was provided, and water was available ad libitum. A periodic analysis of the water was performed, and the results have been archived at the Test Facility. Environmental controls for the animal room were set to maintain a temperature of 22 to 25 °C, humidity of 40–70% relative humidity, and a 12-h light/12-h dark cycle. Animals have been dosed i.v. with 1 mg/kg of FHP01 i.p. with 10 mg/kg of compound or p.o. through gastric gavage needle with 50 mg/kg of compound. Next, mice were anesthetized using gaseous anesthesia and blood samples were collected at each time point, from 3 mice of respective group. After collection of blood samples at each time point, the blood samples were stored on ice, prior to centrifugation. Blood samples were centrifuged at 1540 rcf (5000 rpm), 4 °C for 10 min to separate plasma. Plasma was transferred to pre-labeled micro-centrifuge tubes and promptly frozen at −80 °C until analysis. Samples have been identified by test item, group, animal number, and collection time point. A fit-for-purpose bioanalytical method was developed for analyzing the plasma samples. One set of nine standards have been run before the sample batch and used for plotting the calibration curve. Quality control (QC) samples have been prepared at a minimum of three concentrations, i.e., LQC (not more than 5 times to that of lowest standard concentration), HQC (not less than 75% of the highest standard concentration), and MQC (between the low and high concentration). Minimum of 6 QC samples (three concentrations in duplicate). One Set of QC (LQC, MQC, and HQC) samples have been analyzed before and after the sample batch.
For the analyses of drug distribution to brain and liver, whole body perfusion was performed using chilled saline in the defined group of animals followed by decapitation for tissue collection. The chest of the mice was exposed, the abdominal aorta was clamped, and both jugular veins were cut. Intra-cardial perfusion was performed through an insertion in the left ventricle. Mice brains and livers have been collected and immediately washed, dried, weighed and freeze at −80 °C until homogenization. The protocol has been reviewed and approved by the Institutional Animal Ethics Committee (IAEC).

Setting [6] is: brain/plasma, i.p. administration, read-out: BRAIN/PLASMA.
Setting [7] is: liver/plasma, i.p. administration, read-out: LIVER/PLASMA.

Where two headings read alike, the source gives them in different places.

On to `CCCCc1cn(-c2ccc(NC(=O)Nc3ccccc3C(F)(F)F)cc2)nn1` [FHP01], for which the IC50 stood at 13.3 µM in series [1] (MDA MB 231, 24h); 4.14 µM in series [1] (MDA MB 231, 48h); 3.21 µM in series [1] (MDA MB 231, 72 h); 12.7 µM in series [2] (MDA MB 468, 24h); 3.48 µM in series [2] (MDA MB 468, 48h); 3.06 µM in series [2] (MDA MB 468, 72 h). In addition, the β-catenin protein levels entry in series [3] is given as “time-dependent reduction”. For the same compound, the “WNT1- and WNT3A-dependent TCF/LEF transcriptional activity” value in series [4] is on record as “strong inhibition”. The tissue concentration entry in series [5] (24 h after administration) was “below the level of quantitation”. In addition, the BRAIN/PLASMA entry in series [5] (i.p. administration, 12h) was “BLQ”. Moreover, in series [5] (i.p. administration, 12h), the LIVER/PLASMA result is given as “BLQ”. Moreover, the Kp at 4 h in series [5] (setting [6]) is 0.5 ± 0.24; in series [5] (setting [7]), 3.75 ± 1.06. For the same compound, the results for the Kp at 8 h in series [5] (setting [6]) and in series [5] (setting [7]) were 3.14 ± 0.74 and 6.32 ± 2.23, respectively.

Usually IC50 stands for the concentration that inhibits the measured activity by half.
